This passage reports IC50 results from PubChem BioAssay AID1117334 (Cheminformatics & Chemogenomics Research Group (CCRG), …, 2015).

The test system of this experiment is Colo320 viability, CellTiter-Glo luminescence. Nature of the experiment: cytotoxicity toward Colo320 cells – cell-based, CellTiter-Glo luminescence, IC50, dose response (AID 1117334).

By IC50 is commonly meant the concentration that gives 50% inhibition.

The structures appear in SMILES notation. The source made the active and inactive calls. No rule for the calls is given here. A value given as a limit tells only on which side of the number the result lay.

Turning to `CC(C)n1c(/C=C/[C@@H](O)C[C@@H](O)CC(=O)O)c(-c2ccc(F)cc2)c2ccccc21`, the IC50 is 13000 nM (inactive).

On to `CC(=O)[O][Hg][c]1ccccc1`, for which the IC50 was 1300 nM. Regarding `Cn1cnc([N+](=O)[O-])c1Sc1ncnc2nc[nH]c12`, the IC50 is 10300 nM (inactive). Regarding `CCN(CC)CCCC(C)Nc1c2ccc(Cl)cc2nc2ccc(OC)cc12` (stereo unspecified), the IC50 was 8440 nM (inactive). Consider `O=Cc1ccc(O)c(O)c1O`, for which the IC50 is 9080 nM (inactive). As to `CO[C@@]12[C@H](COC(N)=O)C3=C(C(=O)C(C)=C(N)C3=O)N1C[C@@H]1N[C@@H]12`, the IC50 was 12600 nM (inactive).

As to `Cc1ccc([N+](=O)[O-])[c]2c1[O][Hg]2`, the IC50 was 935 nM. On to `OCCN1CCN(CC/C=C2/c3ccccc3Sc3ccc(C(F)(F)F)cc32)CC1`, for which the concentration for half-maximal inhibition (IC50) is 2310 nM. For `O=C(O)C1(C(=O)O)CCC1.[NH2-].[NH2-].[Pt+2]`, the IC50 is > 20000 nM (inactive). Under `CCCCCCCCCCCCCC[N+](C)(C)C` stands 2520 nM. As to `O=C1[O][Bi][O]c2ccccc21`, the IC50 was > 20000 nM (inactive).
